Laboratory results reported in patent publication US9751869B2, “LXR modulators” (BRISTOL-MYERS SQUIBB COMPANY, priority 2013, dated 2017).

Target: T1, LXRβ (Homo sapiens, UniProt P55055)
T1 construct: Co-transfection expression plasmids, comprising full-length LXRα (pCMX-h LXRα or LXRβ (pCMX-hLXRβ)); expressed in transfected cells; host or cells: CV-1 African green monkey kidney cells, transient transfection with pCMX-hLXRβ
T1 sequence (P55055 1-460): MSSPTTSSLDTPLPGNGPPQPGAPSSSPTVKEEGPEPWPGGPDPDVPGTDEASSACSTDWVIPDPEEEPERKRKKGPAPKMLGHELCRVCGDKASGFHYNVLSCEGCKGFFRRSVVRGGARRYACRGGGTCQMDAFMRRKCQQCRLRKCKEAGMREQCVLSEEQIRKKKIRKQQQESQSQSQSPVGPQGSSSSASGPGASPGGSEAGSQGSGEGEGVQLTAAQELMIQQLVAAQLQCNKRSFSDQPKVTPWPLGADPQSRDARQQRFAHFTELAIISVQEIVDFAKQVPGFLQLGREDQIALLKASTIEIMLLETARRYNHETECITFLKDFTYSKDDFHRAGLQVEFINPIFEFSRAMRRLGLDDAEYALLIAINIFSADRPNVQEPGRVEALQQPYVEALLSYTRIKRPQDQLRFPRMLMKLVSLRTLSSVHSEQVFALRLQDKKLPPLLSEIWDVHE
T1 sequence (P19793 1-462 partner): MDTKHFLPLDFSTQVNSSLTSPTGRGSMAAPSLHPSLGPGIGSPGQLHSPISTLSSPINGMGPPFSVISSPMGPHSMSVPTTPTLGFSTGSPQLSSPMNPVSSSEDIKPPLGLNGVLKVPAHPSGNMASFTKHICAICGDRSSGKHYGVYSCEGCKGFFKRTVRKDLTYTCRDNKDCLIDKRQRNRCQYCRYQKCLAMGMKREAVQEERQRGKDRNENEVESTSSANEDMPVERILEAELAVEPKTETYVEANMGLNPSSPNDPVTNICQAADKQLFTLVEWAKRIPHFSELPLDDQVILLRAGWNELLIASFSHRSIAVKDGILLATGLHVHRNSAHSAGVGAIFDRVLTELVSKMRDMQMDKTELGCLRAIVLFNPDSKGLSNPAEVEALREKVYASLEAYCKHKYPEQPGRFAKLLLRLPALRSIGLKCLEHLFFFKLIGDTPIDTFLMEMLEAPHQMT
Assay: LXR/LXRE co-transfection assay (luciferase reporter) in CV-1 cells, LXRβ
Format: cell-based
Conditions: for EC50: CV-1 cells transfected with pCMX-hLXRβ and LXREx1-Tk-Luciferase, 20 hours incubation, read-out: LXRbeta agonism EC50; for Emax: read-out: LXRbeta % EFFICACY
In short: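 Luciferase read-out after 20 h compound treatment at 37 °C of CV-1 cells carrying transfected hLXRβ plus one-copy LXRE reporter, endogenous RXR partnering. Sigmoidal fit of 10-point half-log curves (4 wells each) gave EC50; % efficacy versus maximal response of the propionamide reference agonist.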

[1] = CV-1 cells, relative to maximum response of high control N-(3-((4-fluorophenyl)-(naphthalene-2-sulfonyl)amino)propyl)-2,2-dimethylpropionamide

`Cc1nc(-c2ccc(OC(F)(F)F)cc2)c(-c2cc(-c3cc(F)c(CO)c(S(C)(=O)=O)c3)ccc2-n2ccc(C#N)n2)o1` [Example 319, 1-(3′-fluoro-4′-(hydroxymethyl)-3-(2-methyl-4-(4-(trifluoromethoxy)phenyl)oxazol-5-yl)-5′-(methylsulfonyl)biphenyl-4-yl)-1H-pyrazole-3-carbonitrile] showed an EC50 of 71 nM and an Emax [1] of 80%.
`Cc1nc(-c2ccc3c(c2)OC(F)(F)O3)c(-c2cc(-c3cc(F)c(CO)c(S(C)(=O)=O)c3)ccc2-c2cc(C(F)(F)C(=O)NCCO)nn2C)o1` [Example 86, 2-(5-(3-(4-(2,2-difluorobenzo[d][1,3]dioxol-5-yl)-2-methyloxazol-5-yl)-3′-fluoro-4′-(hydroxymethyl)-5′-(methylsulfonyl)biphenyl-4-yl)-1-methyl-1H-pyrazol-3-yl)-2,2-difluoro-N-(2-hydroxyethyl)acetamide] gave an EC50 of 715 nM and an Emax [1] of 37%.
`Cc1nc(-c2ccc(OC(F)(F)F)cc2)c(-c2cc(-c3cccc(S(C)(=O)=O)c3)ccc2-n2ccc(C(C)(C)C#N)n2)o1` [Example 373] was tested, and the EC50 was 92 nM and the Emax [1] was 22%.
Work on `CS(=O)(=O)c1cccc(-c2ccc(-n3ccc(C(F)(F)F)n3)c(-c3oc(C4CC4)nc3-c3ccc(OC(F)(F)F)cc3)c2)c1` [Example 338, 2-cyclopropyl-5-(3′-(methylsulfonyl)-4-(3-(trifluoromethyl)-1H-pyrazol-1-yl)biphenyl-3-yl)-4-(4-(trifluoromethoxy)phenyl)oxazole] yielded an EC50 of 186 nM and an Emax [1] of 58%.
`Cc1nc(-c2cc(F)c(OC(F)F)c(F)c2)c(-c2cc(-c3cc(F)c(CO)c(S(C)(=O)=O)c3)ccc2-n2ccc(C(F)(F)F)n2)o1` [Example 352, (3′-(4-(4-(difluoromethoxy)-3,5-difluorophenyl)-2-methyloxazol-5-yl)-3-fluoro-5-(methylsulfonyl)-4′-(3-(trifluoromethyl)-1H-pyrazol-1-yl)biphenyl-4-yl)methanol] showed an EC50 of 14 nM and an Emax [1] of 76%.
In the case of `Cn1nc(C(F)(F)F)cc1-c1ccc(-c2cc(F)c(CO)c(S(C)(=O)=O)c2)cc1-n1nncc1-c1ccc(OC(F)(F)F)cc1` [Example 15, (3-fluoro-4′-(1-methyl-3-(trifluoromethyl)-1H-pyrazol-5-yl)-5-(methylsulfonyl)-3′-(5-(4-(trifluoromethoxy)phenyl)-1H-1,2,3-triazol-1-yl)biphenyl-4-yl)methanol], the EC50 is reported as 11 nM and the Emax [1] is reported as 95%.
Compound `Cn1nc(C(C)(F)F)cc1-c1ccc(-c2cccc(S(C)(=O)=O)c2)cc1-n1nncc1-c1ccc(OC(F)(F)F)cc1` [Example 18, 1-{4-[3-(1,1-difluoroethyl)-1-methyl-1H-pyrazol-5-yl]-3′-(methylsulfonyl)biphenyl-3-yl}-5-{4-[(trifluoromethyl)oxy]phenyl}-1H-1,2,3-triazole] has an EC50 of 57 nM and an Emax [1] of 87%.
`Cc1nc(-c2cc(-c3cccc(S(C)(=O)=O)c3)ccc2-n2nc(C(F)(F)F)cc2C)c(-c2ccc(OC(F)F)cc2)o1` [Example 383, 5-(4-(difluoromethoxy)phenyl)-2-methyl-4-(4-(5-methyl-3-(trifluoromethyl)-1H-pyrazol-1-yl)-3′-(methylsulfonyl)biphenyl-3-yl)oxazole] was tested, and the EC50 was 18 nM and the Emax [1] was 76%.
With `Cc1nc(-c2ccc3c(c2)OC(F)(F)O3)c(-c2cc(-c3cccc(S(C)(=O)=O)c3)ccc2-c2cc(C(C)O)nn2C)o1` (stereo not drawn) [Example 102] the EC50 was 227 nM and the “LXRbeta % EFFICACY” value [1] was 96%.
`Cc1nc(-c2cc(-c3cc(F)c(CO)c(S(C)(=O)=O)c3)ccc2-n2ccc(C(F)(F)F)n2)c(-c2ccc(OC(F)F)nc2)o1` [Example 395, (3′-(5-(6-(difluoromethoxy)pyridin-3-yl)-2-methyloxazol-4-yl)-3-fluoro-5-(methylsulfonyl)-4′-(3-(trifluoromethyl)-1H-pyrazol-1-yl)biphenyl-4-yl)methanol] was tested, and the EC50 was 11 nM and the Emax [1] was 83%.
For `Cc1nc(-c2cc(F)c(OC(F)F)c(F)c2)c(-c2cc(-c3cccc(S(C)(=O)=O)c3)ccc2-n2ccc(C(F)(F)F)n2)o1` [Example 351, 4-(4-(difluoromethoxy)-3,5-difluorophenyl)-2-methyl-5-(3′-(methylsulfonyl)-4-(3-(trifluoromethyl)-1H-pyrazol-1-yl)biphenyl-3-yl)oxazole], the EC50 was 62 nM and the Emax [1] was 77%.
`CCOc1cc(C(F)(F)F)nn1-c1ccc(-c2cc(F)c(CO)c(S(C)(=O)=O)c2)cc1-c1nc(C)oc1-c1ccc(OC(F)(F)F)cc1` [Example 382, (4′-(5-ethoxy-3-(trifluoromethyl)-1H-pyrazol-1-yl)-3-fluoro-3′-(2-methyl-5-(4-(trifluoromethoxy)phenyl)oxazol-4-yl)-5-(methylsulfonyl)biphenyl-4-yl)methanol] showed an EC50 of 629 nM and an Emax [1] of 50%.
With `Cn1nc(C(F)(F)CO)cc1-c1ccc(-c2cc(F)c(CO)c(S(C)(=O)=O)c2)cc1-n1nncc1-c1ccc2c(c1)OC(F)(F)O2` [Example 36, 2-(5-(3-(5-(2,2-difluorobenzo[d][1,3]dioxol-5-yl)-1H-1,2,3-triazol-1-yl)-3′-fluoro-4′-(hydroxymethyl)-5′-(methylsulfonyl)-[1,1′-biphenyl]-4-yl)-1-methyl-1H-pyrazol-3-yl)-2,2-difluoroethanol] the EC50 was 2730 nM and the Emax [1] was 91%.
Work on `Cc1nc(-c2ccc(C(F)(F)F)cc2)c(-c2cc(-c3cc(F)c(CO)c(S(C)(=O)=O)c3)ccc2-n2cc(Cl)c(C(F)(F)F)n2)o1` [Example 438, (4′-(4-chloro-3-(trifluoromethyl)-1H-pyrazol-1-yl)-3-fluoro-3′-(2-methyl-4-(4-(trifluoromethyl)phenyl)oxazol-5-yl)-5-(methylsulfonyl)-[1,1′-biphenyl]-4-yl)methanol] yielded an EC50 of 128 nM and an Emax [1] of 70%.
Compound `Cc1nc(-c2ccc(OC(F)(F)F)cc2)c(-c2cc(-c3cccc(S(C)(=O)=O)c3)ccc2-c2cc(C(F)(F)F)nn2C)o1` [Example 53, 2-methyl-5-(4-(1-methyl-3-(trifluoromethyl)-1H-pyrazol-5-yl)-3′-(methylsulfonyl)biphenyl-3-yl)-4-(4-(trifluoromethoxy)phenyl)Oxazole] has an EC50 of 46 nM and an Emax [1] of 94%.
Compound `Cc1nc(-c2ccc(OC(F)(F)F)cc2)c(-c2cc(-c3cc(F)c(CO)c(S(C)(=O)=O)c3)ccc2-c2cc(C(F)(F)C(N)=O)nn2C)o1` [Example 70, 2,2-difluoro-2-(5-(3′-fluoro-4′-(hydroxymethyl)-3-(2-methyl-4-(4-(trifluoromethoxy)phenyl)oxazol-5-yl)-5′-(methylsulfonyl)biphenyl-4-yl)-1-methyl-1H-pyrazol-3-yl)acetamide] has an EC50 of 317 nM and an Emax [1] of 42%.
`Cc1nc(-c2ccc3c(c2)OC(F)(F)O3)c(-c2cc(-c3cc(F)c(CO)c(S(C)(=O)=O)c3)ccc2-n2nc(C(F)(F)F)cc2C)o1` [Example 329, (3′-(4-(2,2-difluorobenzo[d][1,3]dioxol-5-yl)-2-methyloxazol-5-yl)-3-fluoro-4′-(5-methyl-3-(trifluoromethyl)-1H-pyrazol-1-yl)-5-(methylsulfonyl)biphenyl-4-yl)methanol] showed an EC50 of 3 nM and an Emax [1] of 92%.
`Cc1nc(-c2ccc(OC(F)(F)F)cc2)c(-c2cc(-c3cccc(S(C)(=O)=O)c3)ccc2-n2cc(C)c(C(F)(F)F)n2)o1` [Example 440] was tested, and the EC50 was 51 nM and the Emax [1] was 62%.
For `Cc1nc(-c2ccc(OC(F)(F)F)cc2)c(-c2cc(-c3cccc(S(C)(=O)=O)c3)ccc2-n2ccc(C(F)(F)F)n2)o1` [Example 309, 2-methyl-5-(3′-(methylsulfonyl)-4-(3-(trifluoromethyl)-1H-pyrazol-1-yl)-[1,1′-biphenyl]-3-yl)-4-(4-(trifluoromethoxy)phenyl)oxazole], the EC50 was 120 nM and the Emax [1] was 68%.
Compound `Cc1nc(-c2ccc3c(c2)OC(F)(F)O3)c(-c2cc(-c3cccc(S(C)(=O)=O)c3)ccc2-c2cc(C(=O)NC3CC3)nn2C)o1` [Example 107, N-cyclopropyl-5-(3-(4-(2,2-difluorobenzo[d][1,3]dioxol-5-yl)-2-methyloxazol-5-yl)-3′-(methylsulfonyl)-[1,1′-biphenyl]-4-yl)-1-methyl-1H-pyrazole-3-carboxamide] has an EC50 of 1250 nM and an Emax [1] of 37%.
In the case of `Cc1nc(-c2ccc(OC(F)(F)F)cc2)c(-c2cc(-c3cc(F)c(CO)c(S(C)(=O)=O)c3)ccc2-n2cc(Cl)c(C(C)(C)O)n2)o1` [Example 443], the EC50 is reported as 22 nM and the Emax [1] is reported as 35%.
